Experimental data published in paper PMC2898572 (Journal of neurochemistry, 2009).
“And” between values parts separate entries of the source, which are not always exact repeats. Identical values can stand only once.

What was measured:
[1] = tested on: wild-type and Pept2 null mice; assay: Hot-plate test; type: in vivo; settings: for ED50: icv
rat PEPT2 = settings: read-out: Ki (PEPT2 inhibitor); LLC-PK1 cells stably transfected with rat PEPT2; ref Terada et al. 2000; cited from earlier work
[2] = tested on: opioid peptide transport system; settings: SK-N-SH cells; ref Thakker et al. 2008; cited from earlier work
PEPT2 = settings: rat choroid plexus; concentrations 1,000 times in excess; ref Teuscher et al. 2001; cited from earlier work

## CC(C)C[C@H](NC(=O)[C@@H](O)[C@H](N)Cc1ccccc1)C(=O)O [bestatin]
[1]; bestatin 160 nmol icv with 4 nmol L-KTP, Pept2 null mice, p=0.2931
  effect on the MPE of L-KTP: little effect
Rat PEPT2
  Ki: 18 µM

## L-Tyr-D-Arg [D-KTP]
[1]; 100 nmol icv, both genotypes
  maximum analgesia: 100 % MPE
[1]; 100 nmol icv, both genotypes, 40 min experiment
  duration of response to 100 nmol dose: fully analgesic throughout the 40 min experiment
[1]; Pept2 null mice, response at 5 min, estimate ± standard error
  ED50: 9.1 ± 0.8 nmol
[1]; after icv injection, both genotypes
  time of maximum analgesia: 5 min
[1]; both genotypes (wild-type and Pept2 null)
  ED50: 9 to 10 nmol
[1]; wild-type mice, response at 5 min, estimate ± standard error
  ED50: 10.3 nmol and 10.3 ± 1.0 nmol
[1]; wild-type vs Pept2 null
  difference in ED50 between genotypes: ~ 10%
[2]
  stimulation of opioid peptide transport system: little stimulation
PEPT2
  effect on the uptake of GlySar: no effect
